Assay results: patent US20240180895A1, “USE OF KAPPA OPIOID RECEPTOR AGONISTS TO TREAT CARDIOVASCULAR DISEASE” (Board of Supervisors of Louisiana State University and …, priority 2021, published 2024)

System: spontaneously hypertensive rats
Experiment: Chronic subcutaneous infusion of nalfurafine, radiotelemetry blood pressure (FIG. 19)
Assay type: in vivo, rat
Experimental: Male spontaneously hypertensive rats (SHR; Charles Rivers) were single housed and allowed tap water and standard rodent diet ad libitum. All procedures and experiments were conducted in accordance with the National Institutes of Health guidelines for the care and use of animals.
Radiotelemetry transmitters (Data Sciences International, St. Paul, MN) were implanted into SHR for chronic recording of blood pressure and heart rate and followed as previously published.^56 Briefly, rats were anesthetized and maintained on 2% isoflurane and the right femoral artery was surgically exposed. The transmitter catheter was inserted into the femoral artery and advanced until reaching the abdominal aorta. The site exposing the femoral artery was sutured and rats were allowed 1 week of recovery. Telemetry data was analyzed using Ponemah software (DSI, St. Paul, MN).
In a separate cohort, spontaneously hypertensive rats were administered a subcutaneous nalfurafine infusion (0.3 mg/day) or vehicle (isotonic saline) using an osmotic pump (2ML4; Alzet) for 4 weeks. For the insertion of the osmotic pumps, rats were anesthetized and maintained under 2% isoflurane, a small incision was made at the nape, and the osmotic pump was inserted between the scapulae. The incision was sutured, and rats were returned to their home cages. Blood pressure was recorded throughout the entirety of the experiment and the 20:00-22:00 time frame was plotted.
All results are expressed as mean±SEM. Statistically different changes for both experimental protocols were determined using 2-way ANOVA with repeated measures and were considered statistically different following a significant/value for an interaction between experimental group and time. Statistical significance was determined as P<0.05, and statistics were performed on Prism 7.05 software (GraphPad Software, Inc, San Diego, CA).

[1] = subcutaneous infusion 0.3 mg/day, 30 days

CN(C(=O)/C=C/c1ccoc1)[C@@H]1CC[C@@]2(O)[C@H]3Cc4ccc(O)c5c4[C@@]2(CCN3CC2CC2)[C@H]1O5 [nalfurafine, Nalfurafine]
Decrease in systolic, diastolic, and mean arterial pressure (1 day of subcutaneous nalfurafine infusion 0.3 mg/day, 20:00-22:00 time frame): ~20 mmHg
Heart rate vs vehicle [1]: significantly lower heart rate than the vehicle treated group on day 9, day 16-22, and day 25-30
Systolic, diastolic, mean arterial pressure and heart rate over time [1]: did not demonstrate an increase in these parameters
